Consider seven molecules from patent US5097014A, “Chromogenic tripeptides” (Behringwerke Aktiengesellschaft, priority 1986, dated 1992).

Square brackets hold non-standard residues; d marks the D form. Peptide text beside a SMILES is read from it. * marks the point of attachment. pNA = O=[N+]([O-])c1ccc(N*)cc1; pGlu = O=C1CC[C@@H](C(=O)O)N1

Common to all, as to type: biochemical
Holding throughout (conditions): substrate solution 2 mmol/l (100 μl in 1 ml), tris buffer 50 mmol/l pH 8.0, 37° C.; pNA measured at 405 nm, Blue 49 at 623 nm

Assay [1] deals with protein C (Homo sapiens, UniProt P04070). As to the kind of experiment: Substrate testing: cleavage of chromogenic substrate by protein C. As for the experimental part:
(§1) 100 μl of the enzyme solution were added to a 800 μl of buffer solution (trishydroxyaminomethane, 50 mmol/l), pH 8.0, at 37° C., and 100 μl of 2 mmol/l of substrate solution were added. pNA cleaved off was measured at 405 nm, and Blue 49 or Blue 124 was measured at 623 nm. The cleavage rates were determined in OD/minute. The relative cleavage raten, and thus the specificities of some substrates and enzymes, can be seen from Table II.

Assay [2] has as its target thrombin (Homo sapiens, UniProt P00734). As to the kind of experiment: Substrate testing: cleavage of chromogenic substrate by thrombin. The procedure:
as §1

Assay [3] concerns the target F Xa (Homo sapiens, UniProt P00742). As to the kind of experiment: Substrate testing: cleavage of chromogenic substrate by F Xa. The procedure:
as §1

Assay [4] deals with plasmin (Homo sapiens, UniProt P00747). As to the kind of experiment: Substrate testing: cleavage of chromogenic substrate by plasmin. As for the experimental part: as §1
plasmin, sequence (P00747 581-810 limits assumed, species assumed): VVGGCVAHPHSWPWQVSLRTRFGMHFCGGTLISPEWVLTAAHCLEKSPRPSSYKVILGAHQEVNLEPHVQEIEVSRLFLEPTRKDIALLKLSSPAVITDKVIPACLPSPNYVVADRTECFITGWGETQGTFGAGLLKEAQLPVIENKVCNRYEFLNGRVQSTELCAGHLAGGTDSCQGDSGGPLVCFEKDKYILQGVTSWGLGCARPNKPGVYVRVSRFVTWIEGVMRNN
plasmin, sequence (P00747 97-580 partner limits assumed, species assumed): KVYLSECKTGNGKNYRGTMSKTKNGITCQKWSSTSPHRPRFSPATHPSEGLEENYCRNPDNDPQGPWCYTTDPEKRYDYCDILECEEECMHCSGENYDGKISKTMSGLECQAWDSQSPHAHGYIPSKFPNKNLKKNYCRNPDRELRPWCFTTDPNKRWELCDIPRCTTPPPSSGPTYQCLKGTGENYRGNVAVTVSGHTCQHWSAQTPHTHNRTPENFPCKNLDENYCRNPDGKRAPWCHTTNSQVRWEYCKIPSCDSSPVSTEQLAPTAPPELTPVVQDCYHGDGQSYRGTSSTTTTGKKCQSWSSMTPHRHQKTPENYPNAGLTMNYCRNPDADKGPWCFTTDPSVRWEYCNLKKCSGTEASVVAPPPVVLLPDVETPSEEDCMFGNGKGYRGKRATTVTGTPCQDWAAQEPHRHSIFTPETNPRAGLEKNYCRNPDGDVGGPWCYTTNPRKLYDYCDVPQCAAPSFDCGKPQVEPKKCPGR
In assay [5] the test system is kallikrein. As to the kind of experiment: Substrate testing: cleavage of chromogenic substrate by kallikrein. As for the experimental part: as §1
The target in assay [6] is urokinase (Homo sapiens, UniProt P00749). As to the kind of experiment: Substrate testing: cleavage of chromogenic substrate by urokinase. As for the experimental part: as §1

protein C, sequence (P04070 212-461 limits assumed): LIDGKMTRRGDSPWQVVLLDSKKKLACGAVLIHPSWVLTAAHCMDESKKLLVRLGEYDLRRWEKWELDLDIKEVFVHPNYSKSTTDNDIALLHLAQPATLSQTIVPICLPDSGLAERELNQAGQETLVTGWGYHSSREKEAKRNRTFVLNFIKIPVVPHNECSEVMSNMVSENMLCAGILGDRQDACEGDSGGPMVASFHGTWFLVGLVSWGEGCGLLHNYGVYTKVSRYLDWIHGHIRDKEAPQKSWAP
protein C, sequence (P04070 43-197 partner limits assumed): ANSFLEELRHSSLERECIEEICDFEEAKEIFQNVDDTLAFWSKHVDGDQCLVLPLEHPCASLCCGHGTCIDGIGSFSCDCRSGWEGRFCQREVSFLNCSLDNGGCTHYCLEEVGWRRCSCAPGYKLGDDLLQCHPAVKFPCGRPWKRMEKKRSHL
F Xa, sequence (P00742 235-488 limits assumed): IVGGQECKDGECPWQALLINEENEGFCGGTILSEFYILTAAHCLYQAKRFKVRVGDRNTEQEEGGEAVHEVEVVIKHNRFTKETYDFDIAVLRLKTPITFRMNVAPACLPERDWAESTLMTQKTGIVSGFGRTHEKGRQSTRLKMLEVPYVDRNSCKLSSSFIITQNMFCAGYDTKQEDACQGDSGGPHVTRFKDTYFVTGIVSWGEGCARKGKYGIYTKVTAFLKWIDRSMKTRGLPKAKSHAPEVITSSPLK
F Xa, sequence (P00742 41-179 partner limits assumed): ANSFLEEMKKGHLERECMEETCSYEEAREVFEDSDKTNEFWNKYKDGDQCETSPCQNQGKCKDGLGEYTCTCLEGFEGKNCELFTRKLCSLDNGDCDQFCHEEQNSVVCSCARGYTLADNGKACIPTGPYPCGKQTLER

“7-(D-phenylalanyl-L-prolyl-L-arginylamino)-3-diethylamino-8-methylphenoxazo nium triacetate [H--D--Phe--Pro--Arg--Blue 49]”: the “cleavage rate, protein C” value in assay [1] is recorded as 0.03 OD/minute. Moreover, the “cleavage rate, thrombin” value in assay [2] is 0.395 OD/minute. For the same molecule, the “cleavage rate, F Xa” value in assay [3] amounted to 0.01 OD/minute. Further, the “cleavage rate, plasmin” value in assay [4] was found to be 0.00 OD/minute. In addition, the “cleavage rate, kallikrein” value in assay [5] stood at 0.00 OD/minute.

Take Tos--Gly--Pro--Arg--Blue 49: the “cleavage rate, protein C” value in assay [1] was 0.76 OD/minute. Further, the “cleavage rate, thrombin” value in assay [2] stood at 0.15 OD/minute. Besides, the “cleavage rate, F Xa” value in assay [3] is on record as 0.095 OD/minute. Also, the “cleavage rate, plasmin” value in assay [4] came out at 0.02 OD/minute. Also, in assay [5], the “cleavage rate, kallikrein” value amounted to 0.02 OD/minute.

As to “D--Leu--Pro--Arg--Blue 49 [H--D--Leu--Pro--Arg--Blue 49]”, the “cleavage rate, protein C” value in assay [1] was 0.47 OD/minute. In assay [2], the “cleavage rate, thrombin” value came to 0.09 OD/minute. In addition, the “cleavage rate, F Xa” value in assay [3] is listed as 0.035 OD/minute. Moreover, the “cleavage rate, plasmin” value in assay [4] turned out to be 0.015 OD/minute. Also, the “cleavage rate, kallikrein” value in assay [5] came to 0.015 OD/minute.

Take `N=C(N)NCCC[C@H](NC(=O)CNC(=O)[C@@H]1CCC(=O)N1)C(=O)Nc1ccc([N+](=O)[O-])cc1` [pyro--Glu--Gly--Arg--pNA, reference compound] ([pGlu]-Gly-Arg-pNA): the “cleavage rate, protein C” value in assay [1] is 0.30 OD/minute. The “cleavage rate, thrombin” value in assay [2] amounted to 0.00 OD/minute. Moreover, the “cleavage rate, F Xa” value in assay [3] stood at 0.01 OD/minute. For the same molecule, the “cleavage rate, plasmin” value in assay [4] was 0.01 OD/minute. The “cleavage rate, kallikrein” value in assay [5] turned out to be 0.01 OD/minute.

For the molecule `N=C(N)NCCC[C@H](NC(=O)[C@@H]1CCCN1C(=O)[C@@H]1CCC(=O)N1)C(=O)Nc1ccc([N+](=O)[O-])cc1` [pyro--Glu--Pro--Arg--pNA, reference compound] ([pGlu]-Pro-Arg-pNA), in assay [1], the “cleavage rate, protein C” value is 0.40 OD/minute. For the same molecule, the “cleavage rate, thrombin” value in assay [2] amounted to 0.41 OD/minute. Further, in assay [3], the “cleavage rate, F Xa” value is recorded as 0.04 OD/minute. Further, the “cleavage rate, plasmin” value in assay [4] is listed as 0.53 OD/minute. Also, the “cleavage rate, kallikrein” value in assay [5] is reported as 0.51 OD/minute.

For `N=C(N)NCCC[C@H](NC(=O)[C@@H]1CCCCN1C(=O)[C@H](N)Cc1ccccc1)C(=O)Nc1ccc([N+](=O)[O-])cc1` [H--D--Phe--Pip--Arg--pNA, reference compound], the “cleavage rate, protein C” value in assay [1] worked out at 0.075 OD/minute. Further, the “cleavage rate, thrombin” value in assay [2] is on record as 0.41 OD/minute. Also, the “cleavage rate, F Xa” value in assay [3] is 0.025 OD/minute. Moreover, the “cleavage rate, plasmin” value in assay [4] is 0.035 OD/minute. In addition, the “cleavage rate, kallikrein” value in assay [5] turned out to be 0.11 OD/minute.

Take pyro--Glu--Pro--Arg--Blue 49: in assay [6], the “cleavage rate, urokinase” value was 1,0 OD/minute. The “cleavage rate, protein C” value in assay [1] stood at 0.22 OD/minute. Also, the “cleavage rate, thrombin” value in assay [2] worked out at 0.015 OD/minute. Moreover, the “cleavage rate, F Xa” value in assay [3] amounted to 0.02 OD/minute. Besides, the “cleavage rate, plasmin” value in assay [4] was determined as 0.03 OD/minute. The “cleavage rate, kallikrein” value in assay [5] was 0.015 OD/minute.
